{"source": "ChEMBL document CHEMBL1777804", "about": "“Part 3: Design and synthesis of proline-derived α2δ ligands” (Bioorg Med Chem Lett, 2011)", "key": {"[1]": {"test": "Oral bioavailability in rat", "format": "ADME, organism-based", "details": "in vivo"}, "[2]": {"test": "Dissociation constant, pKa of the compound", "format": "physicochemical"}, "[3]": {"test": "Plasma protein binding in rat", "format": "ADME, cell-free", "details": "read-out: PPB (converted)"}, "[4]": {"test": "Half life in rat", "format": "ADME, organism-based", "details": "in vivo"}, "Rattus norvegicus": {"species_on_record": "Rattus norvegicus", "test": "Unbound clearance in rat urine", "format": "ADME, organism-based", "details": "in vivo"}, "[5]": {"test": "Displacement of [3H]gabapentin from Voltage-dependent calcium channel subunit alpha-2/delta in pig cerebral cortex", "format": "tissue-based, Sus scrofa"}, "[6]": {"test": "Clearance in dog at 0.5 mg/kg, po", "format": "ADME, organism-based, Canis lupus familiaris", "set-up": "dose 0.5 mg/kg, route oral", "details": "in vivo"}, "[7]": {"test": "Half life in dog at 0.5 mg/kg, po", "format": "ADME, organism-based, Canis lupus familiaris", "set-up": "dose 0.5 mg/kg, route oral", "details": "in vivo"}, "[8]": {"test": "Lipophilicity, log D of the compound", "format": "physicochemical", "details": "octanol/water"}, "[9]": {"test": "Ratio of drug level in CSF to plasma in rat", "format": "ADME"}, "[10]": {"test": "Plasma protein binding in human", "format": "ADME, cell-free", "details": "read-out: PPB (converted)"}, "[11]": {"test": "Inhibition of Voltage-dependent calcium channel subunit alpha-2/delta"}}}
{"smiles": "O=C(O)[C@@H]1C[C@H](Oc2cccc(Cl)c2)CN1", "values": [{"measurement": "bioavailability", "setting": "[1]", "result": 100, "unit": "%"}, {"measurement": "pKa", "setting": "[2]", "result": 8.9}, {"measurement": "fraction unbound", "setting": "[3]", "result": 0.19}, {"measurement": "half-life", "setting": "[4]", "result": 0.4, "unit": "h"}, {"measurement": "CL", "setting": "Rattus norvegicus", "result": 2.46, "unit": "L/h/kg"}, {"measurement": "IC50", "setting": "[5]", "result": 0.004, "unit": "µM"}]}
{"smiles": "O=C(O)[C@@H]1C[C@H](COc2cccc(Cl)c2)CN1", "values": [{"measurement": "IC50", "setting": "[5]", "result": 0.013, "unit": "µM"}]}
{"smiles": "Cl.O=C(O)[C@@H]1C[C@H](Cc2cccc(F)c2)CN1", "values": [{"measurement": "bioavailability", "setting": "[1]", "result": 89, "unit": "%"}, {"measurement": "CL/F", "setting": "[6]", "result": 0.024, "unit": "L/h/kg"}, {"measurement": "pKa", "setting": "[2]", "result": 10.1}, {"measurement": "half-life", "setting": "[7]", "result": 26, "unit": "h"}, {"measurement": "fraction unbound", "setting": "[3]", "result": 0.82}, {"measurement": "half-life", "setting": "[4]", "result": 1.6, "unit": "h"}, {"measurement": "logD", "setting": "[8]", "result": 0.1}, {"measurement": "Kp", "setting": "[9]", "result": 0.004}, {"measurement": "fraction unbound", "setting": "[10]", "result": 0.73}, {"measurement": "CL", "setting": "Rattus norvegicus", "result": 0.36, "unit": "L/h/kg"}, {"measurement": "IC50", "setting": "[5]", "result": 0.017, "unit": "µM"}]}
{"smiles": "O=C(O)[C@@H]1C[C@H](OCc2ccc(Cl)cc2)CN1", "values": [{"measurement": "fraction unbound", "setting": "[3]", "result": 0.65}, {"measurement": "CL", "setting": "Rattus norvegicus", "result": 1.56, "unit": "L/h/kg"}, {"measurement": "IC50", "setting": "[5]", "result": 0.048, "unit": "µM"}]}
{"smiles": "O=C(O)[C@@H]1C[C@H](Cc2ccccc2F)CN1", "values": [{"measurement": "IC50", "setting": "[5]", "result": 0.108, "unit": "µM"}]}
{"smiles": "O=C(O)[C@@H]1C[C@H](COc2cccc(F)c2)CN1", "values": [{"measurement": "fraction unbound", "setting": "[3]", "result": 0.91}, {"measurement": "half-life", "setting": "[4]", "result": 1.4, "unit": "h"}, {"measurement": "logD", "setting": "[8]", "result": -0.3}, {"measurement": "fraction unbound", "setting": "[10]", "result": 0.32}, {"measurement": "CL", "setting": "Rattus norvegicus", "result": 0.42, "unit": "L/h/kg"}, {"measurement": "IC50", "setting": "[5]", "result": 0.025, "unit": "µM"}]}
{"smiles": "O=C(O)[C@@H]1C[C@H](Cc2ccccc2Cl)CN1", "values": [{"measurement": "fraction unbound", "setting": "[3]", "result": 0.67}, {"measurement": "half-life", "setting": "[4]", "result": 0.5, "unit": "h"}, {"measurement": "logD", "setting": "[8]", "result": 0.6}, {"measurement": "CL", "setting": "Rattus norvegicus", "result": 0.9, "unit": "L/h/kg"}, {"measurement": "IC50", "setting": "[5]", "result": 0.008, "unit": "µM"}]}
{"smiles": "O=C(O)[C@@H]1C[C@H](Cc2cc(Cl)ccc2Cl)CN1", "values": [{"measurement": "IC50", "setting": "[5]", "result": 0.005, "unit": "µM"}]}
{"smiles": "O=C(O)[C@@H]1C[C@H](Cc2cccc(OC(F)(F)F)c2)CN1", "values": [{"measurement": "IC50", "setting": "[5]", "result": 0.004, "unit": "µM"}]}
{"smiles": "CCc1cccc(C[C@@H]2CN[C@H](C(=O)O)C2)c1", "values": [{"measurement": "IC50", "setting": "[5]", "result": 0.027, "unit": "µM"}]}
{"smiles": "O=C(O)[C@@H]1C[C@H](Cc2cccc(F)c2F)CN1", "values": [{"measurement": "IC50", "setting": "[5]", "result": 0.027, "unit": "µM"}]}
{"smiles": "COc1cccc(C[C@@H]2CN[C@H](C(=O)O)C2)c1", "values": [{"measurement": "IC50", "setting": "[5]", "result": 0.028, "unit": "µM"}]}
{"smiles": "O=C(O)[C@@H]1C[C@H](Cc2cc(F)ccc2F)CN1", "values": [{"measurement": "IC50", "setting": "[5]", "result": 0.01, "unit": "µM"}]}
{"smiles": "O=C(O)[C@@H]1C[C@H](Cc2ccccc2)CN1", "values": [{"measurement": "IC50", "setting": "[5]", "result": 0.272, "unit": "µM"}]}
{"smiles": "O=C(O)[C@H]1C[C@@H](Cc2cccc(F)c2)CN1", "values": [{"measurement": "IC50", "setting": "[5]", "result": "> 10", "unit": "µM"}]}
{"smiles": "NCC1(CC(=O)O)CCCCC1", "note": "[GABAPENTIN]", "values": [{"measurement": "IC50", "setting": "[11]", "result": 0.14, "unit": "µM"}]}
{"smiles": "CC(C)C[C@H](CN)CC(=O)O", "note": "[PREGABALIN]", "values": [{"measurement": "IC50", "setting": "[11]", "result": 0.08, "unit": "µM"}]}
